This is an account of results in patent US8242086B2, “Methods and compositions for treating disorders caused by a deficiency in a gene product of a CLN gene” (Duke University, priority 2008, dated 2012).

The test system of assay [1] is CLN3 knockdown NT2 cells. Nature of the assay: Cell apoptosis rate in CLN3 knockdown NT2 cells, propidium iodide. In kind it is cell-based, human. The following applies: GalCer 50 ng/ml, 3 days after transfection. As to the method: Cell Culture and Cell Treatment. NT2 neuronal precursor cells (ATCC cat no. CRL 1973) were grown in DMEM supplemented with 1% sodium pyruvate, L-glutamine and antibiotics and incubated in 37 C and 5% CO2 for 3 days.
siRNA knockdown of CLN3 in NT2 cells. HS1 siRNA ([…]) for CLN3 knockdown was designed using BLOCK-iT RNA™ Designer (Invitrogen). […] siRNA and scrambled universal negative control siRNA oligonucleotides were transfected into wild type NT2 cells using Lipofectamine RNAiMax™ according to manufacturer's protocol. In brief, […] HS1 RNAi duplex or scrambled siRNA universal negative control were diluted in 50 μl DMEM medium without serum. Lipofectamine™ RNAiMAX was mixed gently before use, then 1 μl was diluted in 50 μl DMEM medium. The diluted RNAi duplexes were combined with the diluted Lipofectamine RNAiMAX and incubated for 10 minutes at room temperature. […]
Determination of cell apoptosis rate in CLN3 knockdown NT2 cells. 10^6 cells transfected with CLN3 siRNA or scrambled siRNA, either treated with 50 ng/ml of GalCer (Avanti Polar Lipids, inc.) or solvent, are suspended in 100 μl PBS, incubated with 100 μl/0.5 mg/ml PI, washed, placed on slides and viewed using a fluorescence microscope. […] Cells in three fields of vision were counted. Percentage of red staining-apoptotic cells/total cells was determined.

In assay [2] the test system is CLN3-deficient human NT2 neuronal precursor cells. Nature of the assay: Lipid raft GalCer in CLN3-deficient NT2 cells after GalCer supplementation. Format: cell-based. The following applies: exogenous GalCer supplementation.

Consider galactosylceramide [GalCer], for which the “cell death (apoptosis) of CLN3-deficient NT2 cells” value in assay [1] is recorded as “significantly reduces cell death”. Also, the “GalCer in lipid rafts of CLN3-deficient NT2 cells” value in assay [2] was “normalizes GalCer in lipid rafts”.
